The values below come from US20160228446A1, “Combination Drug Therapy” (GLAXOSMITHKLINE LLC, priority 2013, published 2016).

Assay [1] has as its system prostate cancer xenograft models. As to conditions: in vivo; cited from earlier work.
For assay [2], the target named is androgen receptor (Homo sapiens, UniProt P10275). As to conditions: cited from earlier work.
Assay [3] concerns LNCaP prostate cancer cells. Put plainly: Cell proliferation assay (CellTiter-Glo, total cellular ATP). The assay is classed as cell-based. As to conditions: single agent; charcoal-stripped serum, 0.1 nM R1881, 7 days; percentage of DMSO-treated control.
Protocol: Cells were grown in charcoal-stripped serum to deplete potential androgen from serum. Under these conditions, cell growth is dependent on exogenous androgen (e.g., R1881).
Androgen-dependent prostate cancer cell line, LNCaP, were grown in RPMI 1640 culture medium supplemented with 10% charcoal-stripped fetal bovine serum for 24 hours in 96-well tissue culture plates at a density of 1,000 cells per well. Cells were treated with various concentrations of compounds A or B alone and in combination in the presence of synthetic androgen (R1881, Sigma-Aldrich, St. Louis, Mo.). After 7 days, total cellular ATP was measured using the CellTiter-Glo Luminescent Cell Viability Assay (Promega, Madison, Wis.) on an EnVision plate reader. Background counts from wells containing no cells were subtracted and the data is presented as a percentage of the DMSO-treated control cells.
In assay [4] the test system is LNCaP cells. The experiment in a line: Luminescent caspase 3/7 assay. As to conditions: single agent 5 uM, five days, normalized to ATP signal. Format: cell-based.
Protocol: Caspase 3/7 activity was normalized and plotted as a percentage of the untreated control samples. Data for 2 independent experiments (N=1, N=2) is shown and represents mean±std dev from duplicate treatments. Tumor cells were seeded in 96-well white tissue culture plates in 100 μL growth media (media with 10% FBS) or CSS media (media with 10% charcoal stripped fetal bovine serum). LNCaP cells were seeded at a density of 1,000 cells per well. Approximately 24 hr after plating, duplicate or triplicate plates of cells were treated with indicated compounds for both luminescent caspase-3/7 and CTG readings. At the end of the 5 days of incubations, half of the plates were lysed and caspase-3/7 activity was measured using the Caspase-Glo® 3/7 Assay (Promega) according to the manufacturer's protocol. Caspase-Glo reagent was added to each plate, incubated for at least 45 minutes, and luminescent signal was read on the EnVision Multilabel Plate Reader with a 0.1 sec integration time. The remaining plates were lysed and ATP levels were measured using the CTG assay. The caspase-3/7 signal was normalized to the ATP signal. The normalized values were expressed as a percentage of the control wells.
Assay [5] concerns phospho-AKT. The experiment in a line: Immunoblot assay, AKT phosphorylation. Format: cell-based. The note with it: LNCaP cells, Compound B 3 or 10 uM, 0.1 nM R1881, six hours. The procedure:
LNCaP cells were treated with Compound B (3 or 10 uM) alone or in presence of compound A (3 uM), all in presence of 0.1 nM synthetic androgen (R1881).
LNCaP cells were grown in RPMI 1640 culture medium supplemented with 10% charcoal-stripped fetal bovine serum for 48 hours in 6-well tissue culture plates at a density of 500,000 cells per well. Cells were treated with the indicated compounds for six hours, washed with PBS, and whole cell lysates were prepared in RIPA buffer (Teknova, Hollister, Calif.). Cell lysates were clarified by centrifugation at 20,000 relative centrifugal force, 4° C., and protein was quantified using the BCA Protein Assay Kit (Pierce, Rockford, Ill.). Equal amounts of protein lysates were separated by SDS-PAGE using a 4-12% Bis-Tris polyacrylamide gel (Life Technologies) and transferred to a nitrocellulose membrane and incubated with antibodies against total and phospho-AKT, phospho-PRAS40, total and phospho-S6, androgen receptor, and FKBP5. Following incubation with primary antibody, blots were washed and incubated with IRDye-800 anti-mouse or IRDye-680 anti-rabbit antibodies for 1 h. Following thorough washing, blots were analyzed using an infrared imaging system (LI-COR).

In assay [6] the test system is phospho-S6. The experiment in a line: Immunoblot assay, phospho-S6. The assay is classed as cell-based. As to conditions: LNCaP cells, Compound B 3 or 10 uM alone or with compound A 3 uM, 0.1 nM R1881, six hours.

androgen receptor, sequence (P10275 whole entry, species assumed): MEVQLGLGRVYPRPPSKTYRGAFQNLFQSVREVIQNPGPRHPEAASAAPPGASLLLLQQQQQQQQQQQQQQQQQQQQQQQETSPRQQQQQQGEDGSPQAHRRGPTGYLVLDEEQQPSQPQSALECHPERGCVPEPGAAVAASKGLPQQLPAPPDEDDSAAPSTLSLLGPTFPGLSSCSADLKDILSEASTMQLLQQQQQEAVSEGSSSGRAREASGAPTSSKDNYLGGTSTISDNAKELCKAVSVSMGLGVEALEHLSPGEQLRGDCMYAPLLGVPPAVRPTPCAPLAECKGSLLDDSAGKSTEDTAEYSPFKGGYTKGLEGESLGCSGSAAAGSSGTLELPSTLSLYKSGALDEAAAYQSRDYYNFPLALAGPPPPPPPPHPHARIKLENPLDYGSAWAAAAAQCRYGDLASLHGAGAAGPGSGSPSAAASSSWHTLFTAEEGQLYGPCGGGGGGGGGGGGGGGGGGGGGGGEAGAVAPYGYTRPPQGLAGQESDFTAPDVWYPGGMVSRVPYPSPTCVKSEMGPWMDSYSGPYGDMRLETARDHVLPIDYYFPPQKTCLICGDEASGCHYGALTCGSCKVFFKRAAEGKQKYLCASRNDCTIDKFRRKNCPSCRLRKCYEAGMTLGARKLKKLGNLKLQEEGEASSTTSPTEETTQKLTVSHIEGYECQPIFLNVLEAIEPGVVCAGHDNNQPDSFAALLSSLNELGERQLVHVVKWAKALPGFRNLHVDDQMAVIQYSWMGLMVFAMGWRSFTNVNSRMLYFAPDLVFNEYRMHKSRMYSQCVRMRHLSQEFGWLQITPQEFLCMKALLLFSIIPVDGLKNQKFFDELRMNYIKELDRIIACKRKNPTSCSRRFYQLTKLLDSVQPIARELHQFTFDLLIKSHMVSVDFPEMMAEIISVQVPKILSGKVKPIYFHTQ

For `CC(O)c1cc(C(=O)N[C@@H](C)Cn2ccc(-c3ccc(C#N)c(Cl)c3)n2)[nH]n1` (some centres unmarked) [ODM-201], the “anti-proliferative activity in prostate cancer xenograft models” value in assay [1] is listed as “anti-proliferative activity”. In assay [2], the “affinity for the androgen receptor” value was “high affinity”.
As to `CNC(=O)c1ccc(N2C(=S)N(c3ccc(C#N)c(C(F)(F)F)c3)C(=O)C2(C)C)cc1F` [Compound A, 4-(3-(4-Cyano-3-(trifluoromethyl)phenyl)-5,5-dimethyl-4-oxo-2-thioxoimidazolidin-1-yl)-2-fluoro-N-methylbenzamide], the LNCaP cell growth entry in assay [3] is on record as “inhibited”. The “induction of caspase 3/7 activity” value in assay [4] was “minimal induction”.
Take `Cc1c(Cn2c(C)nc3c(C(=O)O)cc(N4CCOCC4)cc32)cccc1C(F)(F)F` [Compound B, 2-methyl-1-{[2-methyl-3-(trifluoromethyl)phenyl]methyl}-6-(4-morpholinyl)-1H-benzimidazole-4-carboxylic acid]: in assay [5], the AKT phosphorylation result is “inhibited AKT phosphorylation”. Moreover, the phospho-S6 result in assay [6] is “inhibition of phospho-S6”. For the same compound, the LNCaP cell growth entry in assay [3] was “inhibited the growth”. Besides, the “induction of caspase 3/7 activity” value in assay [4] is “minimal induction”.
